{
  "source": "patent US20100130432A1",
  "about": "“Non-Natural Amino Acids and Neurotensin Analogues Thereof” (priority 2005, published 2010)",
  "key": {"rats [1]": {"test_system": "rats", "experiment": "Maximum tolerated dose", "details": "rat, in vivo"}, "rats [2]": {"test_system": "rats", "experiment": "Hotplate assay", "type": "in vivo, rat", "description": "Animals. Experimentally naïve male Sprague-Dawley rats from Charles River Laboratories, Raleigh, N.C. (230-260 g) or Harlan, Prattville Ala. (240-280 g), were maintained 4 per cage in animal quarters on a regular light/dark cycle (lights on 0600-1800) with ad libitum food and water for approximately 1 week before the experiment. The range of body weights on the 2 days of testing was 230-260 grams. The experiment was done on one day, with animals allowed to recover for three days before experiments are repeated.\nPeptide Preparation. Test articles are prepared at the desired concentration in saline for either IP injection or gavage administration with N=6 for each dose and vehicle. Morphine (5 mg/kg) is used as a control for certain protocols. […] Apomorphine HCl (Sigma-Aldrich, St. Louis, Mo.) was dissolved in distilled water at a concentration of 5 mg/mL within 40 minutes of administration for injection at 1 mL/kg S.C. to give a dose of 5 mg/kg. When complete ED50s are determined, dosing range of the peptide will be 10, 3, 1, 0.3, 0.1 of the estimated ED50, covering two log orders of range.\nThe Hotplate Assay. The hotplate assay, a standard rat model for […] pain (see Le Bars et al., Pharmacol. Rev. 53: 597-652 (2001) and Chapman et al., Pain 22:1-31 (2002)), was performed as follows. A hotplate maintained at 52° C. to 53° C. was enclosed on four sides in a plexiglass chamber that extended 6 in. above the plate. Animals were placed on the plate, and the latency between the time a rat was placed on the surface and when it lifts or licks a back paw (indicative of pain sensation) was determined. Animals are removed immediately at the cutoff latency of 30 seconds. Assays are scored as the percent of maximal possible effect (% MPE) defined as 100%, which corresponds to the rats remaining on the hotplate for 30 seconds without responding. Thus, % MPE are calculated using the following equation: % MPE=[(post-drug latency−pre-drug latency)/(cut-off pre-drug latency)]×100%. N=6 or greater for all experiments.\nTmax indicates the time after dosing in which a maximum response was observed."}, "NTR-1 [3]": {"molecular_target": "T1, NTR-1 (Homo sapiens, UniProt P30989)", "T1 sequence (P30989 whole entry, species assumed)": "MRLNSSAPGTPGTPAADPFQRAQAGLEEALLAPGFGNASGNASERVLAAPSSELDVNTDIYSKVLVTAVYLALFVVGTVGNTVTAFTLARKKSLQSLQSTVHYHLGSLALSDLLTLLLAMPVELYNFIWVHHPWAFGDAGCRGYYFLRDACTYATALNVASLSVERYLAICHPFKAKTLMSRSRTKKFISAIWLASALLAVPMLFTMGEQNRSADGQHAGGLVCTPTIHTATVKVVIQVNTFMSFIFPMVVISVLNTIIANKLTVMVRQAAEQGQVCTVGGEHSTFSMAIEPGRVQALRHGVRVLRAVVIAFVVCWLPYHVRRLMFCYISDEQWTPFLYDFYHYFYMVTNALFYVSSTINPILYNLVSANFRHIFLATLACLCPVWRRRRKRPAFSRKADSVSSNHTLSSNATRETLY", "experiment": "Competitive NTR binding versus radiolabeled NT[8-13]"}, "[4]": {"experiment": "Brain distribution of ABS201 (LC/MS/MS)", "description": "At selected time points, blood was removed or brain harvested and the concentration of the peptide analog determined using LC/MS/MS.\nThese samples were then used for the determination of plasma and brain drug levels by LC/MS/MS for estimating BBB penetration and pharmacokinetic parameters."}, "[5]": {"test_system": "adrenergic (alpha1, alpha 2, beta), dopamine, histamine (H1, H2, H3), muscarinic (central, peripheral), nicotinic, opioid (nonselective), orphanin, serotonin …", "details": "10^−9, 10^−7 10^−5 M"}, "[6]": {"details": "intra-stomach", "method": "These samples were used for the determination of plasma drug by LC/MS/MS for estimating pharmacokinetic parameters and segmental absorption. The bioavailability of intra-stomach, intra-duodenum, intra-jejunum, intra-colon administration relative to intravenous administration and gavage was calculated."}, "Brattleboro rats": {"test_system": "Brattleboro rats", "details": "orally dosed"}, "in vivo": {"experiment": "in vivo", "details": "rat"}, "NTR-1 [7]": {"molecular_target": "T1, NTR-1", "experiment": "Functional agonism: induction of cAMP and inositol phosphate production", "type": "cell-based"}, "rats [8]": {"test_system": "rats", "experiment": "d-Amphetamine induced hyperlocomotion / locomotor activity chambers", "type": "in vivo, rat", "description": "Sound- and light-attenuated locomotor cages are used to measure the ability of potential candidates to decrease d-amphetamine-induced hyperactivity.\nd-Amphetamine induced hyperlocomotion. Experimentally I male Sprague-Dawley rats were housed as described above. Rats were handled for three days prior to testing to minimize experimenter induced hyperlocomotion on test day. For experiments, sound- and light-attenuated automated photocell beam activity chambers (AccuScan Instruments, Inc., Columbus, Ohio) were used to measure locomotion. Cages were connected to a VersaMax Analyzer (AccuScan) in conjunction with an IBM computer using VersaMax 1.80-0146 software (AccuScan) to record vertical and horizontal activity. Total activity values recorded were the sum of vertical and horizontal activity. […]\nRats were placed in the activity chambers for 30 minutes to habituate and establish baseline activity levels. Then, rats were removed and given an IP or oral dose of peptide (N=7) or saline (N=8) and returned to the chamber to establish the peptide's effect on spontaneous activity levels. About 30 minutes after administration, rats were removed and given an IP injection of d-amphetamine (1 mg/kg) or vehicle and returned to the chamber for a further 1 hr to assess the effect of the peptide on induced hyperlocomotion.\nChronic Testing Protocols.\nSeparate two-factor ANOVAs for DOSE X TIME were performed for each different time-phase of the assay. Phases for the IP dosing and oral dosing experiments consisted of habituation (time points 10-60), drug (time points 70-120), and amphetamine (time points 130-240)."}, "NTR-2": {"molecular_target": "NTR-2 (Homo sapiens, UniProt O95665)", "sequence (O95665 whole entry, species assumed)": "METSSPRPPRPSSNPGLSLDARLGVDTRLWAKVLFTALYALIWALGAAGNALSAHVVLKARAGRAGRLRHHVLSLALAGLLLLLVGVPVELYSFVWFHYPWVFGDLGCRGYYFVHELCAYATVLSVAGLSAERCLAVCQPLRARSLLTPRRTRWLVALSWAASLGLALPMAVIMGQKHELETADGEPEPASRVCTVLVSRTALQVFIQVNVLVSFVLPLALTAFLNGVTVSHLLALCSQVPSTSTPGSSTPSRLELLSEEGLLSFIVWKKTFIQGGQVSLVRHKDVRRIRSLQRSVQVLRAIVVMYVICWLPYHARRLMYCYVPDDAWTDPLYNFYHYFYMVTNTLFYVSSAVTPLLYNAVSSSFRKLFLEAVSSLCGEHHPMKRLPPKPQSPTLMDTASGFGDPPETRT", "experiment": "Competitive NTR binding versus radiolabeled NT[8-13]"}, "rats [9]": {"test_system": "rats", "experiment": "Catalepsy, horizontal bar test", "protocol": "Cataleptic Analysis. […] To circumvent these potential confounding factors, tests are performed on an animal only once in a quiet, controlled environment.\nCatalepsy Assessment. […] Rats were given an IP injection of peptide (5 mg/Kg), saline, or haloperidol (1 mg/kg). After 3 hours, catalepsy was measured using the horizontal bar test. Briefly, the front paws were placed directly on a horizontal bar 5 mm in diameter placed 7.5 cm above the cage floor. The rat was held in this position for 3 sec and then released. The time from release until the paws return to the cage floor was measured and recorded. A cut-off time of 30 sec was observed; this indicated a fully cataleptic animal as cataleptic animals are frozen to the bar. […] Measures were repeated every 30 min for 4 hr. Data are means±SEM (p<0.01)."}, "[10]": {"experiment": "Plasma stability, quantitative MALDI-MS assay", "type": "in vitro ADME"}, "[11]": {"details": "5 or 30 min incubation at 37° C."}, "rats [12]": {"test_system": "rats", "quoted_text": "Chronic Testing Protocols. […] Induced hypothermia was monitored and tested for significance as described above. […] The test protocol for day five was as described above."}},
  "note": "“Also recorded” adds a separate entry of the source. Where two headings read alike, the source gives them in different places. Non-standard residues stand in square brackets, D forms with d. Residues, ends and D or L forms follow the SMILES beside them. *: point of attachment. Tle = CC(C)(C)[C@H](N)C(=O)O; X1 = C[C@@H](CCCCCN)C(=O)*",
  "data": [
    {"smiles": "CC(C)C[C@H](NC(=O)[C@@H](NC(=O)[C@H](Cc1ccc(O)cc1)NC(=O)[C@@H]1CCCN1C(=O)[C@H](CCCNC(=N)N)NC(=O)[C@@H](C)CCCCCN)C(C)(C)C)C(=O)O", "note": "[ABS201, hLys-Arg-Pro-Tyr-t-Leu-Leu] (X1-RPY[Tle]L-OH)", "values": [
      {"measurement": "lower limit for the MTD", "setting": "rats [1]", "result": "≥ 100", "unit": "times the ED50"},
      {"measurement": "analgesic activity (% MPE) compared with morphine", "setting": "rats [2]; ABS201 5 mg/kg, Morphine 5 mg/kg", "result": "comparable in extent and duration to morphine"},
      {"measurement": "tolerance to the analgesic activity", "setting": "rats [2]; dosed daily for five days", "result": "do not become tolerant"},
      {"measurement": "MPE (I.P.)", "setting": "rats [2]; hotplate, IP at 10 mg/kg", "result": 100, "unit": "%"},
      {"measurement": "Tmax (I.P.) of % MPE", "setting": "rats [2]; hotplate, IP at 10 mg/kg", "result": "15-45"},
      {"measurement": "MPE (oral)", "setting": "rats [2]; hotplate, orally at 20 mg/kg", "result": 39, "unit": "%"},
      {"measurement": "Tmax (Oral) of % MPE", "setting": "rats [2]; hotplate, orally at 20 mg/kg", "result": 30},
      {"measurement": "EC50", "setting": "NTR-1 [3]", "result": "3.92 ± 0.01", "unit": "nM"},
      {"measurement": "IC50", "setting": "NTR-1 [3]", "result": "11.2 ± 0.3", "unit": "nM"},
      {"measurement": "affinity for the target receptor (NTR1)", "setting": "NTR-1 [3]", "result": "nM affinity"},
      {"measurement": "binds less effectively than its parent", "setting": "NTR-1 [3]", "result": 50, "unit": "fold"},
      {"measurement": "levels in brain", "setting": "[4]; IV 1 mg/kg and PO 30 mg/kg", "result": "below the LLOD at all times"},
      {"measurement": "levels in brain", "setting": "[4]; IV 5 mg/kg", "result": "below the LLOD at all times"},
      {"measurement": "levels in brain", "setting": "[4]; oral 50 mg/kg, 15 minutes post administration", "result": "detected in brains of 2 of 3 animals"},
      {"measurement": "displacement of the receptors' endogenous substrate", "setting": "[5]", "result": "No displacement"},
      {"measurement": "uptake in the stomach", "setting": "[6]", "result": "Virtually no ABS201 is taken up in the stomach"},
      {"measurement": "reversal of PPI deficit", "setting": "Brattleboro rats", "result": "reverses PPI"},
      {"measurement": "MTD at 48 hr", "setting": "in vivo; iv", "result": "≥ 100", "unit": "mg/kg"},
      {"measurement": "MTD at 48 hr", "setting": "in vivo; po", "result": "≥ 500", "unit": "mg/kg"},
      {"measurement": "Functional NTR-1 Agonist", "setting": "NTR-1 [7]", "result": "Yes"},
      {"measurement": "ED50 inhibition of amphetamine-induced hyperlocomotion", "setting": "rats [8]; IP", "result": "about 1 mg/kg"},
      {"measurement": "effect of repeated daily dosing on attenuation of d-amphetamine induced hyperlocomotion", "setting": "rats [8]; IP 5 mg/kg daily, 5 days", "result": "had no effect"},
      {"measurement": "spontaneous locomotor activity, drug phase", "setting": "rats [8]; IP, all dose groups", "result": "responded significantly lower than saline during the drug phase"},
      {"measurement": "effect on d-amphetamine induced hyperactivity", "setting": "rats [8]; IP, all doses", "result": "significantly reduced hyperlocomotion for all doses tested"},
      {"measurement": "spontaneous locomotor activity, drug phase", "setting": "rats [8]; oral 10, 20, 30 mg/kg", "result": "only the 10 and 30 mg/kg doses reduced spontaneous locomotor activity"},
      {"measurement": "effect on d-amphetamine induced hyperlocomotion", "setting": "rats [8]; oral 10-30 mg/kg, time points 140-180", "result": "reduced locomotor activity"},
      {"measurement": "NTR-2 affinity", "setting": "NTR-2", "result": "sub-micromolar"},
      {"measurement": "catalepsy", "setting": "rats [9]; IP 5 mg/kg, 5 mg/kg", "result": "does not induce catalepsy; also recorded: does not induce a cataleptic state"},
      {"measurement": "catalepsy", "setting": "rats [9]; Table 11", "result": "No"},
      {"measurement": "half-life", "setting": "[10]", "result": "> 167", "unit": "h"},
      {"measurement": "binding to plasma proteins", "setting": "[11]", "result": "little or no binding"},
      {"measurement": "Toxicity, dose without toxicity", "setting": "single acute dose I.P.", "result": "(>100 x ED50)"},
      {"measurement": "Toxicity", "setting": "single acute dose at 100x ED50 I.P.", "result": "No"},
      {"measurement": "dose tolerance", "setting": "rats [12]; 10x ED50 administered daily over 5 days", "result": "No"},
      {"measurement": "dose tolerance", "setting": "rats [12]; I.P. 5 days at 5× the ED50, hypothermia and amphetamine-induced locomotion", "result": "not observed"},
      {"measurement": "antinociception", "setting": "rats [12]; summary of behavioral effects", "result": "not antinociceptive"}
    ]}
  ]
}
